From patent US9757405B2, “Compositions comprising rutin useful for the treatment of tumors resistant to chemotherapy” (PROBIOTICAL S.P.A., priority 2013, dated 2017)

Experiments:
[1] = system: MDA-MB-231 (breast adenocarcinoma) cells; experiment: Cell viability of chemoresistant MDA-MB-231 cells; type: cell-based, human; conditions: alone or in association with cyclophosphamide
From the text: (§1) The activity of the association of rutin with synthetic chemotherapeutics (cyclophosphamide) and of the association of rutin with arctigenin, arctiin, berberine, berbamine, sanguinarine, chelerythrine (referred to with the term “extracts” in the tables), was studied on resistant cell lines of adenocarcinomas and carcinomas compared with chemosensitive tumor cell lines and with line cells.
(§2) In particular, chemoresistant human tumor cells MDA-MB-231 (breast adenocarcinoma), ECV-304 (bladder carcinoma), HuH-7 (hepatocellular carcinoma) and HTB-43 (squamous cell carcinoma of the pharynx), chemosensitive tumor cells MCF-7 (breast adenocarcinoma) and non-tumor healthy human mammal fibroblasts (HMF) have been used.

[2] = Cell viability of non-tumor healthy fibroblasts HMF; conditions: human
From the text: as §1, §2

Row | SMILES | Synergic effect in association with cyclophosphamide [1] | viability at 850 ng/ml [2] [%] | viability at 1000 ng/ml [2] [%] | viability at 1300 ng/ml [2] [%]
1 | O=c1c(O)c(-c2ccc(O)c(O)c2)oc2cc(O)cc(O)c12 [Quercetin, quercetin] | absence of synergic effects | – | – | –
2 | O=P1(N(CCCl)CCCl)NCCCO1 (stereo not shown) [Cyclophosphamide, cyclophosphamide] | – | 54 | 48 | 42
